{
  "source": "patent US10980238B2",
  "about": "“Alkali metal salt for use in treatment of varroa destructor mite infestation of honey bees” (Universität Hohenheim, priority 2015, dated 2021)",
  "key": {"bees [1]": {"tested_on": "bees", "conditions": "25 mM in 70% sucrose; 50 bees", "description": "(§6) The next set of experiments was carried out in plastic container with 50 bees and 20 mites each. Bees were fed the same amount of unspecific dsRNA that has been used in previous assays in 70% sucrose solution, LiCl at a concentration of 25 mM in 70%, sucrose solution, and 70% sucrose solution only."}, "bees [2]": {"tested_on": "bees", "test": "Experiment 3 dose response cage test (50 bees, 25 mites): bee survival and health", "type": "in vivo, Apis mellifera", "procedure": "(§1) LiCl was added to 70% sucrose solution to final concentrations of 16 μM, 80 μM, 400 μM, 2 mM, 10 mM, 50 Mm, and 250 mM, respectively. 2 ml of the respective solution was fed to the bees, if the sucrose/LiCl solution was entirely ingested additional sucrose syrup was offered ad libidum. Uptake of LiCl solution as well as survival rate of bees and mites was monitored 3 times daily (morning, noon, evening). Additionally, the healthiness of bees was scored based on characteristic behavioral features. LiCl was administered until all mites were dead, and the experiment continued with plain sucrose syrup to record the response of bees over the entire 2 weeks of the experiment. For control bees treated with sucrose syrup only, 9 mites died within the course of the experiment with even timely distribution of the events, indicating natural death of mites. 26 bees died in the same period of time. In view of the life span of a worker bee (4 weeks) this relates to the natural death rate that can be expected in a time span of 14 days. However, 12 bees were lost in a single day equaling almost 50% of the total bee loss in this control experiment. […] For that reasons the sudden loss of bees on day 14 is considered to result from a mistake in bee treatment as feeding inappropriate amounts of sucrose syrup. (See FIG. 4, dotted red line)\n(§2) Additionally, we set out to test activity of a single dose on mite viability. Sucrose with 25 mM LiCl was fed to a cage of 50 bees infested with 25 mites and monitored as described above. […] As such, a single dose of LiCl can be used to kill mites under the described conditions.\n(§3) To explore the upper limit of dosage and limits of tolerability of bees we fed sucrose containing 100 mM of LiCl as only food source over 14 days. […] In view of the latter results the effective window for concentration and administration and regimen of LiCl is sufficiently large to elevate low but effective concentrations (10 mM) more than 10 fold or prolong the time of administration substantially without negative impact on bee health."}, "Varroa destructor [3]": {"tested_on": "Varroa destructor", "test": "Experiment 2 cage test (50 bees, 20 mites): dead mites", "type": "in vivo", "conditions": "25 mM in 70% sucrose", "description": "as §6"}, "Varroa destructor [4]": {"tested_on": "Varroa destructor", "test": "Experiment 3 dose response cage test (50 bees, 25 mites): mite survival", "type": "in vivo", "procedure": "as §1, §2, §3"}, "honey bee larvae": {"tested_on": "honey bee larvae", "test": "Experiment 8 larval development in vitro", "type": "in vivo, Apis mellifera", "procedure": "In order to assess the effect of LiCl on larval development in vitro, larvae were obtained by caging the queen for 24 h on broodless combs in the colony. After 5 to 6 days when the larvae reached the age of about 48 h they were transferred to petri dishes filled with larval food. The petri dishes were placed in plastic boxed filled with 8% sulfuric acid in order to prevent fungi infection and kept in a chamber at 34° C. and 95% relative humidity. The larvae were fed as needed with a mixture consisting of 53% royal jelly, 4% glucose, 8% fructose, 1% yeast extract and water (control). For samples treated with LiCl, 10 mM, 25 mM or 50 mM LiCl were added to the mixture. Prior to the pupa phase, the larvae were placed on a tissue for defecating which occurred approximately on day 9. Afterwards larvae were placed in well plates until hatching. Larvae mortality was monitored on a daily basis."}, "Varroa destructor [5]": {"tested_on": "Varroa destructor", "test": "Experiment 7 mini-hives (2000 to 3000 bees), semi-field conditions", "type": "in vivo", "conditions": "remaining mites killed with Perizin and counted", "procedure": "In order to investigate if the miticidal effect of LiCl can also be detected under semi-field conditions, so-called “mini-hives” consisting of 2000 to 3000 bees each were treated with LiCl.\nLiCl was dissolved in 70% sucrose to final concentrations of 2 mM, 10 mM and 25 mM. Each concentration was replicated 6 times and fed to the bees for 23 days. Dead mites were documented daily. After 23 days of LiCl treatment, remaining mites were killed with Perizin® (commercial product containing the active ingredient coumaphos) and counted (see Table 4 “Remaining mites”)."}, "Varroa mites": {"tested_on": "Varroa mites", "test": "Experiment 5 cage comparison of LiCl, NaCl and MgCl2: dead mites", "type": "in vivo, Varroa destructor", "procedure": "(§4) In a further experiment LiCl, NaCl and MgCl2 were selected and their acaricidal activity compared. The experiment was performed in cages of 50 bees, to each of which 25 mites were added. Bees in control cages received sucrose only. LiCl, NaCl or MgCl2 were added to 70% sucrose solutions at a final concentration of 25 mM each and fed to the bees for seven days. Survival rate of bees and mites were monitored daily. Dead bees and mites were removed from the cages.\n(§5) The numbers represent mean values derived from 6 cages. […] Numbers for NaCl, MgCl2 and control represent mean values derived from 3 separate cages."}, "Varroa destructor [6]": {"tested_on": "Varroa destructor", "test": "Experiment 9 artificial swarms: mite fall", "type": "in vivo", "conditions": "25 mM or 50 mM", "procedure": "Six artificial swarms were fed with sucrose/LiCl after a starving phase of several hours. LiCl was dissolved in sucrose at final concentrations of 25 mM and 50 mM. Each artificial swarm received 500 ml of the sucrose/LiCl mixture in a feeding balloon. The total volume of sucrose/LiCl solution was consumed by the bees. Mite fall was monitored for 7 days. Afterwards, bees were treated with Perizin® to assess the number of remaining mites."}, "bees [7]": {"tested_on": "bees", "conditions": "50 bees per cage, mean of 6 cages (LiCl) or 3 cages", "procedure": "as §4, §5"}, "[8]": {"conditions": "100 mM as only food source over 14 days"}, "[9]": {"conditions": "250 mM in 70% sucrose, 25 mites"}, "[10]": {"conditions": "25 mM in 70% sucrose for seven days"}, "[11]": {"conditions": "25 mM in 70% sucrose for seven days, 25 mites per cage, mean of 6 cages (LiCl) or 3 cages"}},
  "note": "Values joined by “and” are separate entries in the source; they are usually repeats but may differ in a detail not shown here. Equal entries are not always repeated.",
  "data": [
    {"compound": "[Cl-].[Li+]", "note": "[LiCl, lithium chloride]", "values": [
      {"measurement": "effect on bees within the first 4 days of treatment", "setting": "bees [1]", "value": "not affected"},
      {"measurement": "tolerance by bees", "setting": "bees [2]; 2 mM over a period of 2 weeks", "value": "without pronounced decrease in viability"},
      {"measurement": "bees that survived the treatment", "setting": "bees [2]; 2 mM, 50 bees, 2 weeks", "value": 42, "unit": "bees"},
      {"measurement": "bees alive at the end of the experiment", "setting": "bees [2]; 10 mM, 50 bees, 2 weeks", "value": 34, "unit": "bees"},
      {"measurement": "tolerability by the bees", "setting": "bees [2]; 50 mM, 50 bees", "value": "good tolerability"},
      {"measurement": "bees lost in the timespan of the entire experiment", "setting": "bees [2]; 50 mM, 50 bees, 2 weeks", "value": 20, "unit": "bees"},
      {"measurement": "effect on bees", "setting": "bees [2]; [8]", "value": "time delayed continuous loss of bees"},
      {"measurement": "average rate of bee loss", "setting": "bees [2]; 250 mM until all mites dead, then sucrose only, 50 bees", "value": 3, "unit": "bees per day"},
      {"measurement": "bees lost in total", "setting": "bees [2]; 250 mM until all mites dead, then sucrose only, 50 bees, 2 weeks", "value": 27, "unit": "bees"},
      {"measurement": "impact on bee health", "setting": "bees [2]; single dose of sucrose with 25 mM, entire experiment", "value": "no negative impact on bee health"},
      {"measurement": "mites dead after 24 h", "setting": "Varroa destructor [3]", "value": 4, "unit": "mites"},
      {"measurement": "mites dead after 48 h", "setting": "Varroa destructor [3]", "value": 15, "unit": "mites"},
      {"measurement": "mites dead after 72 h", "setting": "Varroa destructor [3]", "value": 20, "unit": "mites"},
      {"measurement": "mites that survived the treatment", "setting": "Varroa destructor [4]; 2 mM, 25 mites, 2 weeks", "value": 11, "unit": "mites"},
      {"measurement": "time in which all mites were killed", "setting": "Varroa destructor [4]; 10 mM in 70% sucrose, 25 mites", "value": "≤ 48", "unit": "h"},
      {"measurement": "additional mites found dead at the end of the experiment", "setting": "Varroa destructor [4]; 10 mM, 25 mites", "value": 2, "unit": "mites"},
      {"measurement": "dead mites, day 1", "setting": "Varroa destructor [4]; 10 mM, 25 mites", "value": 3, "unit": "mites"},
      {"measurement": "dead mites, day 2", "setting": "Varroa destructor [4]; 10 mM, 25 mites", "value": 10, "unit": "mites"},
      {"measurement": "dead mites, day 3", "setting": "Varroa destructor [4]; 10 mM, 25 mites", "value": 7, "unit": "mites"},
      {"measurement": "dead mites, day 4", "setting": "Varroa destructor [4]; 10 mM, 25 mites", "value": 3, "unit": "mites"},
      {"measurement": "time to all mites dead", "setting": "Varroa destructor [4]; 50 mM in 70% sucrose, 25 mites", "value": 48, "unit": "h"},
      {"measurement": "effect on mites", "setting": "Varroa destructor [4]; [8]", "value": "effectively killed"},
      {"measurement": "mites lost between 30 h and 48 h", "setting": "Varroa destructor [4]; [9]", "value": "21/25"},
      {"measurement": "time to loss of all mites", "setting": "Varroa destructor [4]; [9]", "value": "≤ 48", "unit": "h"},
      {"measurement": "impact on viability of mites", "setting": "Varroa destructor [4]; concentrations lower than 2 mM (16 μM, 80 μM, 400 μM), data not shown", "value": "only marginally impacted the viability of mites"},
      {"measurement": "time to eliminate all mites", "setting": "Varroa destructor [4]; concentrations of 10 mM and higher", "value": "≤ 4", "unit": "days"},
      {"measurement": "time in which mites were effectively killed", "setting": "Varroa destructor [4]; single dose of sucrose with 25 mM, 50 bees, 25 mites", "value": "≤ 72", "unit": "h"},
      {"measurement": "Survival rate (%) of larvae or pupae", "setting": "honey bee larvae; 10 mM added to larval food", "value": 0, "unit": "%"},
      {"measurement": "time in which all larvae were lost", "setting": "honey bee larvae; 10 mM, 25 mM or 50 mM added to larval food", "value": "≤ 72", "unit": "h"},
      {"measurement": "Survival rate (%) of larvae or pupae", "setting": "honey bee larvae; 25 mM added to larval food", "value": 0, "unit": "%"},
      {"measurement": "Survival rate (%) of larvae or pupae", "setting": "honey bee larvae; 50 mM added to larval food", "value": 0, "unit": "%"},
      {"measurement": "Remaining mites", "setting": "Varroa destructor [5]; 2 mM in 70% sucrose for 23 days", "value": 234},
      {"measurement": "Remaining mites", "setting": "Varroa destructor [5]; 10 mM in 70% sucrose for 23 days", "value": 54},
      {"measurement": "Remaining mites", "setting": "Varroa destructor [5]; 25 mM in 70% sucrose for 23 days", "value": 24},
      {"measurement": "acaricidal effect", "setting": "Varroa mites; [10]", "value": "strong acaricidal effect"},
      {"measurement": "Number of dead mites, Day 1", "setting": "Varroa mites; [11]", "value": 0.3},
      {"measurement": "Number of dead mites, Day 2", "setting": "Varroa mites; [11]", "value": 2.2},
      {"measurement": "Number of dead mites, Day 3", "setting": "Varroa mites; [11]", "value": 19.2},
      {"measurement": "Number of dead mites, Day 4", "setting": "Varroa mites; [11]", "value": 3.0},
      {"measurement": "Number of dead mites, Day 5", "setting": "Varroa mites; [11]", "value": 0.3},
      {"measurement": "Number of dead mites, Day 6", "setting": "Varroa mites; [11]", "value": 0.0},
      {"measurement": "Number of dead mites, Day 7", "setting": "Varroa mites; [11]", "value": 0.0},
      {"measurement": "Number of dead mites, Sum", "setting": "Varroa mites; 25 mM in 70% sucrose, days 1-7, 25 mites per cage, mean of 6 cages (LiCl) or 3 cages", "value": 25.0},
      {"measurement": "acaricidal efficacies for all six swarms", "setting": "Varroa destructor [6]", "value": "above 80%"},
      {"measurement": "Number of dead bees, Day 1", "setting": "bees [7]; [10]", "value": 0.2},
      {"measurement": "Number of dead bees, Day 2", "setting": "bees [7]; [10]", "value": 0.2},
      {"measurement": "Number of dead bees, Day 3", "setting": "bees [7]; [10]", "value": 0.3},
      {"measurement": "Number of dead bees, Day 4", "setting": "bees [7]; [10]", "value": 0.8},
      {"measurement": "Number of dead bees, Day 5", "setting": "bees [7]; [10]", "value": 0.5},
      {"measurement": "Number of dead bees, Day 6", "setting": "bees [7]; [10]", "value": 1.0},
      {"measurement": "Number of dead bees, Day 7", "setting": "bees [7]; [10]", "value": 0.2},
      {"measurement": "Number of dead bees, Sum", "setting": "bees [7]; 25 mM in 70% sucrose, days 1-7", "value": "3 and 3.2"}
    ]}
  ]
}
